Consider three molecules from patent US11634425B2, “Pharmaceutical compounds” (priority 2019, dated 2023).

The structures appear in SMILES notation. Where two headings read alike, the source gives them in different places.

The data set is described as follows: in vitro. The data set is classed as in vitro ADME. The following applies: microsomes, pH 7.4, 1 μM compound, 0.5 mg/mL protein, read-out: Liver Microsomal Stability t1/2. A digest of the protocol: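 Pooled liver microsomes (0.5 mg/mL protein) in 0.1 M phosphate pH 7.4 with 1 μM compound and 1 mM NADPH at 37° C., sampled at 0–45 min; minus-NADPH control at 45 min. Acetonitrile quench, LC-MS/MS; t1/2 and CLint from ln peak-area ratio vs time slope.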
A general note: Liver microsomes are a subcellular fraction often used to study metabolism.

For `CCc1ccc(-c2nn3cccnc3c2C(=O)N[C@H]2N=C(c3ccccc3)c3cccc(F)c3NC2=O)cn1` [Example 55], the half-life at 1 μM by setting is: (dog) 1.87 h; (human) 2.93 h; (rat) 1.01 h.
On to `O=C(N[C@H]1N=C(c2ccccc2)c2ccccc2NC1=O)c1c(-c2ccccc2F)nn2cccnc12` [Example 2, 2-(2-Fluorophenyl)-N-[(3S)-2-oxo-5-phenyl-1,3-dihydro-1,4-benzodiazepin-3-yl]pyrazolo[1,5-a]pyrimidine-3-carboxamide], for which the half-life at 1 μM is 7.38 h (dog), 3.08 h (human) and above 2.33 h (rat).
Take `Cc1ccc(-c2nn3cccnc3c2C(=O)N[C@H]2N=C(c3ccccc3)c3cccc(F)c3NC2=O)cn1` [Example 50, N-[(3S)-9-fluoro-2-oxo-5-phenyl-1,3-dihydro-1,4-benzodiazepin-3-yl]-2-(6-methylpyridin-3-yl)pyrazolo[1,5-a]pyrimidine-3-carboxamide]: the half-life at 1 μM was determined as 13.3 h (dog), 13.4 h (human) and 3.88 h (rat).
